# Experimental data as given in US7691844B2, “Nonpeptide substituted spirobenzoazepines as vasopressin antagonists” (Ortho-McNeil Pharmaceutical, Inc., priority 2000, dated 2010).
# Experiments:
# human V2 receptor = human V2 receptor (Homo sapiens, UniProt P30518); assay: In-vitro receptor binding assay (3H-arginine-8-vasopressin), V2
# Experimental: (§1) (A) In-Vitro Binding Assay […] The reaction plates are allowed to sit at room temperature for one hour. The samples are filtered through Unifilter GF/C plates (presoaked in 0.3 polyethyleneimine). The plates are washed 5 times with cold physiological saline containing 0.05% Tween 20. After drying, the bottom of the filter plates are sealed and 0.025 ml of Microscint-20 is added to each filter. The top of the plate is sealed, and the plate is counted. Non-specific binding is determined by the addition of 1.25 μM […]-vasopressin in those wells. % Inh. is calculated as follows: […]
# V1a = V1a (Homo sapiens, UniProt P37288); assay: In-vitro receptor binding assay (3H-arginine-8-vasopressin), V1a; conditions: for inhibition at 0.1 µM / inhibition at 1 µM / inhibition at 0.125 µM: read-out: Receptor Binding V1a (% Inh. @ concentration in μM)
# Chain of V1a (P37288 whole entry): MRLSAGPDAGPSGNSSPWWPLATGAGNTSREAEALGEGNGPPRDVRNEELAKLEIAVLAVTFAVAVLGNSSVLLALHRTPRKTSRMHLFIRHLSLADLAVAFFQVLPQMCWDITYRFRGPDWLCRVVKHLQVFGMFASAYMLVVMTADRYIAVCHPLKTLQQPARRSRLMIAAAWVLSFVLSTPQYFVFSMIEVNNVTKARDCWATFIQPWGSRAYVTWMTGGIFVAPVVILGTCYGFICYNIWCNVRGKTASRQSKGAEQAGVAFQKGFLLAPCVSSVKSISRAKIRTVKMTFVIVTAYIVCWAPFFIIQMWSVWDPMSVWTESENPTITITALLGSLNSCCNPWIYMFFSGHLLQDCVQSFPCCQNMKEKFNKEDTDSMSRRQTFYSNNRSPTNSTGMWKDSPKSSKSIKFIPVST
# Experimental: as §1
# [1] = @ 1 μM, read-out: Receptor Binding V2 (% Inh. @ concentration in μM)
# [2] = read-out: Receptor Binding V2 (% Inh. @ concentration in μM)
# [3] = @ 0.1 μM, read-out: Receptor Binding V2 (% Inh. @ concentration in μM)
# Chain of human V2 receptor (P30518 whole entry): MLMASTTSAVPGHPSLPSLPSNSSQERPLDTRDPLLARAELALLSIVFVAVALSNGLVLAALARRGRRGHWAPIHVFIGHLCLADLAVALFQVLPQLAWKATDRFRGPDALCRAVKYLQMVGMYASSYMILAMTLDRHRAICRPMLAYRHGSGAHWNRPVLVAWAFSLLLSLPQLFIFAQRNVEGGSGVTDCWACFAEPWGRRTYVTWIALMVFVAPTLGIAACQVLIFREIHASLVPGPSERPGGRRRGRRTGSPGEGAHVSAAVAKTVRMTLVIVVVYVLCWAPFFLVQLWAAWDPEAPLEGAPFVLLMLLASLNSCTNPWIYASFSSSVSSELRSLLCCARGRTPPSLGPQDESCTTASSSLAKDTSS
Compound,inhibition at 1 µM (human V2 receptor; [1]),IC50 (V1a),other results
COc1ccc(C(=O)N2CCC3(CCCCC3=O)Cc3ccccc32)cc1 (centres unmarked) [Compound 29],8%,0.013 µM,–
O=C(Nc1ccc(C(=O)N2CCC3(CCCCC3O)Cc3ccccc32)cc1)c1ccccc1-c1ccccc1 (centres unmarked) [Compound 32],–,0.061 µM,IC50 (human V2 receptor): 0.028 µM
O=C(Nc1ccc(C(=O)N2CCC3(C=C(C(=O)N(CCN4CCOCC4)CCN4CCOCC4)CC3)Cc3ccccc32)cc1)c1ccccc1-c1ccccc1 (centres unmarked) [Compound 146],–,–,inhibition at 0.1 µM (human V2 receptor; [3]): 39%; inhibition at 0.1 µM (V1a): 48%
O=CC1=C[C@@]2(CC1)CCN(C(=O)c1ccc(NC(=O)c3ccccc3F)cc1Cl)c1ccccc1C2 [Compound 144],–,0.008 µM,inhibition at 0.1 µM (human V2 receptor; [3]): 9%
O=C(Nc1ccc(C(=O)N2CCC3(C=C(C(=O)N4CCN(c5ccncc5)CC4)CC3)Cc3ccccc32)cc1)c1ccccc1-c1ccccc1 (centres unmarked) [Compound 145],–,–,IC50 (human V2 receptor): 0.066 µM; inhibition at 0.1 µM (V1a): 66%
Cc1ccccc1C(=O)Nc1ccc(C(=O)C2Cc3ccccc3CC3(C=CCCC3)C2)cc1 (centres unmarked) [Compound 130],–,0.047 µM,Receptor Binding V2 (% Inh. @ concentration in μM) (human V2 receptor; @ 0.1 μM): 15% @ 0.1
O=C(c1ccc(I)cc1)N1CCC2(C=CCCC2)Cc2ccccc21 (centres unmarked) [Compound 40],–,0.57 µM,Receptor Binding V2 (% Inh. @ concentration in μM) (human V2 receptor; @ 10 μM): 27% @ 10
COc1cc(NC(=O)c2cc(F)ccc2C)ccc1C(=O)N1CCC2(C=CCCC2)Cc2ccccc21 (centres unmarked) [Compound 116],–,0.019 µM,IC50 (human V2 receptor): 0.091 µM
Cc1ccc(C(=O)Nc2ccc(C(=O)N3CCC4(C=CCCC4)Cc4ccccc43)cc2)cc1C (centres unmarked) [Compound 81],47%,0.14 µM,–
Cc1ncccc1C(=O)Nc1ccc(C(=O)N2CCC3(C=CCCC3)Cc3ccccc32)cc1 (centres unmarked) [Compound 105],–,0.035 µM,IC50 (human V2 receptor): 1 µM
C[S+]([O-])c1ccc(C(=O)N2CCC3(C=CCCC3)Cc3ccccc32)cc1 (centres unmarked) [Compound 94],10%,0.02 µM,–
O=C(c1ccc(F)c(F)c1)N1CCC2(C=CCCC2)Cc2ccccc21 (centres unmarked) [Compound 43],–,0.68 µM,"inhibition at 10 µM (human V2 receptor; @ 10 μM, read-out: Receptor Binding V2 (% Inh. @ concentration in μM)): 42%"
O=C(O)c1ccn(-c2ccc(C(=O)N3CCC4(C=CCCC4)Cc4ccccc43)cc2)c1 (centres unmarked) [Compound 199],–,–,inhibition at 0.1 µM (human V2 receptor; [3]): 2%; inhibition at 0.1 µM (V1a): 0%
COc1cc(NC(=O)c2cc(F)ccc2C)ccc1C(=O)N1CCC2(C=C(C(=O)O)CC2)Cc2ccccc21 (centres unmarked) [Compound 175],–,–,IC50 (human V2 receptor): 0.11 µM; inhibition at 0.1 µM (V1a): 15%
CCCCOc1ccc(C(=O)N2CCC3(C=CCCC3)Cc3cc(Cl)c(Cl)cc32)cc1 (centres unmarked) [Compound 73],–,0.09 µM,Receptor Binding V2 (% Inh. @ concentration in μM) (human V2 receptor; @ 1 μM): 10% @ 1
Nc1ccc(C(=O)N2CCC3(C=CCCC3)Cc3ccccc32)cc1 (centres unmarked) [Compound 68],3%,0.81 µM,–
COCCN1CCN(CC2=CC3(CC2)CCN(C(=O)c2ccc(NC(=O)c4cc(F)ccc4C)cc2Cl)c2ccccc2C3)CC1 (centres unmarked) [Compound 140],–,–,inhibition at 0.1 µM (human V2 receptor; [3]): 65%; inhibition at 0.1 µM (V1a): 41%
O=C(c1ccc(OC(F)(F)F)cc1)N1CCC2(C=CCCC2)Cc2ccccc21 (centres unmarked) [Compound 77],16%,0.9 µM,–
"O=C(Nc1ccc(C(=O)N2CCC3(CCCCC3=O)Cc3ccccc32)cc1)c1ccccc1-c1ccccc1 (centres unmarked) [Compound 30, 4-(2-Phenylbenzoyl-4-aminobenzoyl)-4-aza-2′-oxo-[6,5]-spiro-[5,6]-benzododecane]",–,0.035 µM,IC50 (human V2 receptor): 0.033 µM
C[S+]([O-])c1ccc(C(=O)Nc2ccc(C(=O)N3CCC4(C=CCCC4)Cc4ccccc43)cc2)cc1 (centres unmarked) [Compound 95],–,–,Receptor Binding V2 (% Inh. @ concentration in μM) (human V2 receptor; @ 1 μM): 0% @ 1; Receptor Binding V1a (% Inh. @ concentration in μM) (V1a; @ 1 μM): 27% @ 1
CSc1ccc(C(=O)N2CCC3(C=CCCC3)Cc3ccccc32)cc1 (centres unmarked) [Compound 92],0%,0.066 µM,–
O=C(Nc1ccc(C(=O)N2CCC3(C=CCCC3)Cc3ccccc32)cc1)c1ccncc1 (centres unmarked) [Compound 104],36%,0.051 µM,–
N#Cc1cccc(C(=O)N2CCC3(C=CCCC3)Cc3ccccc32)c1 (centres unmarked) [Compound 52],–,0.53 µM,Receptor Binding V2 (% Inh. @ concentration in μM) (human V2 receptor; @ 10 μM): 28% @ 10
O=C(Nc1ccccc1)Nc1ccc(C(=O)N2CCC3(C=CCCC3)Cc3ccccc32)cc1 (centres unmarked) [Compound 83],25%,0.17 µM,–
O=C(NCc1ccc(C(=O)N2CCC3(C=CCCC3)Cc3ccccc32)cc1)c1ccccc1 (centres unmarked) [Compound 55],–,–,Receptor Binding V2 (% Inh. @ concentration in μM) (human V2 receptor; @ 10 μM): 29% @ 10; Receptor Binding V1a (% Inh. @ concentration in μM) (V1a; @ 10 μM): 0% @ 10
Cc1cccc(C(=O)Nc2ccc(C(=O)N3CCC4(C=CCCC4)Cc4ccccc43)cc2)c1 (centres unmarked) [Compound 85],–,0.05 µM,IC50 (human V2 receptor): 0.38 µM
Cc1ccc(F)cc1C(=O)Nc1ccc(C(=O)N2CCC3(C=C(C(=O)NCCO)CC3)Cc3ccccc32)c(Cl)c1 (centres unmarked) [Compound 11],–,0.028 µM,IC50 (human V2 receptor): 0.01 µM
Nc1ccc(C(=O)Nc2ccc(C(=O)N3CCC4(C=CCCC4)Cc4ccccc43)cc2)cc1 (centres unmarked) [Compound 70],–,0.01 µM,Receptor Binding V2 (% Inh. @ concentration in μM) (human V2 receptor; @ 1 μM): 21% @ 1

# Continued, in another order:
inhibition at 1 µM (human V2 receptor; [1]),IC50 (V1a),Compound,other results
–,0.114 µM,COc1cc(-n2ccc(C=O)c2)ccc1C(=O)N1CCC2(C=CCCC2)Cc2ccccc21 (centres unmarked) [Compound 166],inhibition at 0.225 µM (human V2 receptor; [2]): 5%
42%,0.23 µM,O=C(c1ccc(OC2CCCCC2)cc1)N1CCC2(C=CCCC2)Cc2ccccc21 (centres unmarked) [Compound 185],–
0%,–,CC(=O)Oc1ccc(C(=O)N2CCC3(C=CCCC3)Cc3ccccc32)cc1 (centres unmarked) [Compound 172],inhibition at 0.1 µM (V1a): 15%
7%,–,"COc1cc(C(=O)N2CCC3(C=C(C(=O)NCCN(C)C)CC3)Cc3ccccc32)ccc1N (centres unmarked) [Compound 187, 4-(4-Amino-3-methoxybenzoyl)-4-aza-3′-[2-(N,N-dimethylamino)ethylcarboxamido]-[6,4]-spiro-[5,6]-benzoundec-2′-ene]",inhibition at 1 µM (V1a; @ 1 μM): 54%
18%,0.25 µM,O=C(c1ccc(OCC2CCCCC2)cc1)N1CCC2(C=CCCC2)Cc2ccccc21 (centres unmarked) [Compound 183],–
–,0.06 µM,"COc1cc(C(=O)N2CCC3(C=CCCC3)Cc3ccccc32)ccc1-n1ccc(C=O)c1 (centres unmarked) [Compound 167, 4-(3-Methoxy-4-(pyrrol-1-yl-3-carboxaldehyde)benzoyl)-4-aza-[6,5]-spiro-[5,6]-benzododec-2′-ene]",inhibition at 0.225 µM (human V2 receptor; [2]): 19%
16%,–,COC(=O)C1=CC2(CC1)CCN(C(=O)c1ccc(-n3nccc3C)c(N)c1)c1ccccc1C2 (centres unmarked) [Compound 212],inhibition at 0.125 µM (V1a): 29%
–,0.042 µM,COc1cc(-n2ccc(CO)c2)ccc1C(=O)N1CCC2(C=CCCC2)Cc2ccccc21 (centres unmarked) [Compound 165],inhibition at 0.25 µM (human V2 receptor; [2]): 25%
65%,–,CCCCN1CCC(Oc2ccc(C(=O)N3CCC4(C=CCCC4)Cc4ccccc43)cc2F)CC1 (centres unmarked) [Compound 171],inhibition at 0.1 µM (V1a): 24%
34%,0.086 µM,O=C(c1ccc(OCc2ccccc2)cc1)N1CCC2(C=CCCC2)Cc2ccccc21 (centres unmarked) [Compound 184],–
45%,–,COC(=O)C1=CC2(CC1)CCN(C(=O)c1ccc(-n3ccc(C)n3)c(N)c1)c1ccccc1C2 (centres unmarked) [Compound 211],inhibition at 0.125 µM (V1a): 55%
53%,0.013 µM,"COc1cc(C(=O)N2CCC3(C=CCCC3)Cc3ccccc32)ccc1-n1ccc(CO)c1 (centres unmarked) [Compound 178, 4-[3-Methoxy-4-(3-hydroxymethylpyrrol-1-yl)benzoyl]-4-aza-[6,5]-spiro-[5,6]benzododec-2′-ene]",–
13%,0.084 µM,O=Cc1ccn(-c2ccc(C(=O)N3CCC4(C=CCCC4)Cc4ccccc43)cc2)c1 (centres unmarked) [Compound 152],–
–,1.1 µM,CN(C)CCNC(=O)C1=CC2(CC1)CCN(C(=O)c1ccc(N)cc1)c1ccccc1C2 (centres unmarked) [Compound 193],Receptor Binding V2 (% Inh. @ concentration in μM) (human V2 receptor; @ 1 μM): 0% @ 1
11%,–,"COc1cc(C(=O)N2CCC3(C=C(C(=O)NCCN(C)C)CC3)Cc3ccccc32)ccc1[N+](=O)[O-] (centres unmarked) [Compound 186, 4-(3-Methoxy-4-nitrobenzoyl)-4-aza-3′-[2-(N,N-dimethylamino)ethylcarboxamido]-[6,4]-spiro-[5,6]benzoundec-2′-ene]",inhibition at 1 µM (V1a; @ 1 μM): 48%
55%,–,COC(=O)C1=CC2(CC1)CCN(C(=O)c1ccc(-n3ccc(C)n3)c(N(C)C)c1)c1ccccc1C2 (centres unmarked) [Compound 213],inhibition at 0.125 µM (V1a): 63%
0%,–,COC(=O)CN1CCC(Oc2ccc(C(=O)N3CCC4(C=CCCC4)Cc4ccccc43)cc2F)CC1 (centres unmarked) [Compound 169],inhibition at 0.1 µM (V1a): 4%
–,0.062 µM,COc1cc(C(=O)N2CCC3(C=CCCC3)Cc3ccccc32)ccc1NC(=O)c1cc(F)ccc1C (centres unmarked) [Compound 182],IC50 (human V2 receptor): 0.228 µM
–,0.114 µM,O=C(c1ccc(-n2ccc(CO)c2)cc1Cl)N1CCC2(C=CCCC2)Cc2ccccc21 (centres unmarked) [Compound 164],inhibition at 0.25 µM (human V2 receptor; [2]): 20%
28%,0.008 µM,"COc1cc(C(=O)N2CCC3(C=C(C(=O)NCCN(C)C)CC3)Cc3ccccc32)ccc1-n1ccc(CO)c1 (centres unmarked) [Compound 190, 4-[3-Methoxy-4-(3-hydroxymethylpyrrol-1-yl)benzoyl]-3′-[2-(N,N-dimethylamino)ethylcarboxamido]-4-aza-[6,4]-spiro-[5,6]-benzoundec-2′-ene]",–
8%,–,CCCCC(=O)N1CCC(Oc2ccc(C(=O)N3CCC4(C=CCCC4)Cc4ccccc43)cc2F)CC1 (centres unmarked) [Compound 174],inhibition at 0.1 µM (V1a): 0%
